Data reported in patent US20190255022A1, “WOUND-HEALING AGENT” (NIPPON CHEMIPHAR CO., LTD., priority 2016, published 2019).
Marks after values point to notes of the source that are not given here.

Tested on: wound in diabetes mouse (db/db mouse) model
Test: Effect of compound A on wound in diabetes mouse (db/db mouse) model
Type: in vivo
Settings: for wound area ratio: 0.05 mL once a day, mean±standard error, n=8
Protocol: The compound A was weighed in the required amount, and polyethylene glycol 400 (PEG400) was added to the compound to prepare liquids having final concentrations of the compound of 0.001, 0.01, and 0.1 w/v %. In order to prepare ointments having final concentrations of the compound of 0.0005, 0.005, and 0.05 w/w %, PEG4000 melted by warming at 65° C. was added to the liquids, and the liquids were stirred until they solidified at room temperature to prepare ointments having concentrations of the compound of 0.0005, 0.005, and 0.05 w/w %.
Diabetes mice (db/db mice) were anesthetized with isoflurane, and a 1.5-cm square of skin including the back median line as the center axis of each mouse was removed with ophthalmic scissors. A polyurethane film was stuck so as to cover the skin-lacking wound part and surrounding parts to prepare the wound.
The administration was performed once a day at a volume of 0.05 mL. As for the administration method, the administration was performed with a disposable polypropylene injection syringe attached to a 23G needle by inserting the needle into a gap between the wound and the polyurethane film covering the wound part. On the day when the wound was produced and the days when the wound area was measured, the compound was administered to the wound part by using a disposable polypropylene injection syringe attached to a 23G needle before sticking the polyurethane film.
On days 14 to 20 of the administration (the day on which the administration was started is day 1 of the administration), the administration was performed by peeling off the polyurethane film under isoflurane anesthesia, cleaning the wound with absorbent cotton containing physiological saline, administering the ointment with a disposable polypropylene injection syringe, and then the polyurethane film was stuck on again.
On days 1, 4, 8, 12, 16, and 21 of the administration, the wound part was traced. That is, after the polyurethane film was removed (in the case of the day 1 of the administration, before the administration and sticking of the film), a plastic sheet was placed on the wound part, the contour of the wound part was traced on the plastic sheet (tracing was performed by using a felt pen so that the external periphery of the wound part would coincide with the internal periphery of the line drawn with the felt pen), and a copy of the sheet on which tracing was performed was used as the source of raw data. The area of the inside of the traced line (mm^2) was measured once using an area-line meter (PLANIX EX, Tamaya Technics Inc.) on the copy of the sheet on which tracing was performed. The results are expressed as ratio of change (%) calculated from the wound area (mm^2) of each measurement day, and the wound area (mm^2) of the day 1 of the wound creation (before administration).
Significant difference test was performed by using a commercial statistical analysis program (SAS System, SAS Institute Japan, Inc.). Statistical significance levels lower than 5% were considered to be significant, and the results are indicated as those of the level lower than 5% (*; p<0.05) and those of the level lower than 1% (**; p<0.01).
As for the test method, the multiple comparison of Dunnett's method was used for the comparison between the vehicle-administered group and compound A-administered groups.

Which wound area ratio (0.0005% compound A ointment, day 1 of administration) does the source give for `Cc1cc2c(CCc3sc(-c4ccc(C(F)(F)F)cc4)nc3C(C)C)noc2cc1OCC(=O)O` [compound A, [3-[2-[4-isopropyl-2-(4-trifluoromethyl)phenyl-5-thiazolyl]ethyl]-5-methyl-1,2-benzisoxazol-6-yl]oxyacetic acid] here?
The wound area ratio was 100.0 ± 0.0%.

What about the wound area ratio (0.0005% compound A ointment, day 4 of administration) of the same molecule?
The wound area ratio was 96.9 ± 1.7%.

What about the wound area ratio (0.0005% compound A ointment, day 8 of administration) of the same molecule?
Its wound area ratio is 95.2 ± 2.4%.

And the wound area ratio (0.0005% compound A ointment, day 12 of administration)?
The wound area ratio was 82.9 ± 2.7%.

What about the wound area ratio (0.0005% compound A ointment, day 16 of administration) of the same molecule?
The wound area ratio was 73.4 ± 2.7%.

And the wound area ratio (0.0005% compound A ointment, day 21 of administration)?
The wound area ratio was 67.6 ± 3.8%.

What about the wound area ratio (0.005% compound A ointment, day 1 of administration) of the same molecule?
Its wound area ratio is 100.0 ± 0.0%.

What about the wound area ratio (0.005% compound A ointment, day 4 of administration) of the same molecule?
Its wound area ratio is 97.2 ± 2.4%.

And the wound area ratio (0.005% compound A ointment, day 8 of administration)?
Its wound area ratio is 95.0 ± 2.2%.

And the wound area ratio (0.005% compound A ointment, day 12 of administration)?
Its wound area ratio is 84.1 ± 1.6%.

And the wound area ratio (0.005% compound A ointment, day 16 of administration)?
The wound area ratio was 72.1 ± 1.7%.

And the wound area ratio (0.005% compound A ointment, day 21 of administration)?
Its wound area ratio is 69.1 ± 3.0%.

And the wound area ratio (0.05% compound A ointment, day 1 of administration)?
The wound area ratio was 100.0 ± 0.0%.

What about the wound area ratio (0.05% compound A ointment, day 4 of administration) of the same molecule?
The wound area ratio was 96.0 ± 2.1%.

What about the wound area ratio (0.05% compound A ointment, day 8 of administration) of the same molecule?
Its wound area ratio is 90.3 ± 2.6* %.

And the wound area ratio (0.05% compound A ointment, day 12 of administration)?
The wound area ratio was 78.6 ± 1.6** %.

And the wound area ratio (0.05% compound A ointment, day 16 of administration)?
Its wound area ratio is 69.2 ± 2.1%.

What about the wound area ratio (0.05% compound A ointment, day 21 of administration) of the same molecule?
Its wound area ratio is 65.5 ± 2.1%.

What about the “wound area compared with the vehicle-administered group” value (0.05% compound A-administered group, day 8 and day 12 of the administration) of the same molecule?
The value was “significantly smaller”.
